Like-named read-outs stand apart in the source and are kept apart here.
Legend:
[1] = system: cingulate and retrosplenial cortices; settings: mice and rats, cited from earlier work
[2] = Anesthetic-sparing effect of perzinfotel with isoflurane (summary statements); format: in vivo, dogs; settings: in combination with anesthetic (isoflurane); doses without reduced cardiopulmonary function
[3] = doses needed to relieve hyperalgesia in preclinical pain models; cited from earlier work
[4] = system: rats trained to distinguish between PCP and saline; settings: cited from earlier work
[5] = doses typically used clinically; cited from earlier work

In the case of `O=C(O)[C@H]1C[C@@H](CP(=O)(O)O)CCN1` (relative stereo) [CGS-19755, cis-4-phosphonomethyl-2-piperidine carboxylic acid], the “vacuoles in some layers of the cingulate and retrosplenial cortices” value ([1]; behaviorally effective doses) is given as “transient, reversible induction of vacuoles” and the “effectiveness:vacuolization ratio” value [1] is given as 1.
In the case of `O=c1c2c(c1=O)N(CCP(=O)(O)O)CCCN2` [Perzinfotel, [2-(8,9-dioxo-2,6-diazabicyclo[5.2.0]non-1-(7)-en-2-yl)ethyl]phosphonic acid], the anesthetic-sparing effects [2] is listed as “up to 60%”, the ataxia or sedation [3] is listed as “did not produce ataxia or sedation” and the “substitution for PCP (discriminative stimulus effects)” value (“substitution for PCP” below) [4] is listed as “did not substitute”.
In the case of `C[C@]12N[C@H](Cc3ccccc31)c1ccccc12` [dizocilpine], the “substitution for PCP” value [4] is listed as “substitute”.
In the case of `CNC1(c2ccccc2Cl)CCCCC1=O` (centres unmarked) [ketamine], the anesthetic-sparing effects [5] is listed as 10-20%.
In the case of `CC12CC3CC(C)(C1)CC(N)(C3)C2` [memantine], the “substitution for PCP” value [4] is given as “substitute”.

— patent US20090061024A1, “COMPOSITIONS AND METHODS EMPLOYING NMDA ANTAGONISTS FOR ACHIEVING AN ANESTHETIC-SPARING EFFECT” (Wyeth, priority 2007, published 2009)
